Test results reported in ChEMBL document CHEMBL1201861, “Genomics of Drug Sensitity in Cancer screening data, Wellcome Trust Sanger Institute”.

Experiments:
Test in all cases: cells
COLO-829 = assay type: functional, cell-based, Homo sapiens; details: Homo sapiens, COLO-829
Description: SANGER: Inhibition of human COLO-829 cell growth in a cell viability assay.

CP50-MEL-B = assay type: functional, cell-based, Homo sapiens; details: Homo sapiens, CP50-MEL-B;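 also: growth inhibition of the human cell line, measured with a cell viability read-out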
Description: SANGER: Inhibition of human CP50-MEL-B cell growth in a cell viability assay.

CTV-1 = assay type: functional, cell-based; details: Homo sapiens;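 also: growth inhibition of the cell line, read out with a cell viability assay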
Description: SANGER: Inhibition of human CTV-1 cell growth in a cell viability assay.

D-336MG = assay type: functional, cell-based, Homo sapiens; details: Homo sapiens, D-336MG
Description: SANGER: Inhibition of human D-336MG cell growth in a cell viability assay.

D-502MG = assay type: functional, cell-based, Homo sapiens; details: Homo sapiens, D-502MG
Description: SANGER: Inhibition of human D-502MG cell growth in a cell viability assay.

D-542MG = assay type: functional, cell-based, Homo sapiens; details: Homo sapiens, D-542MG
Description: SANGER: Inhibition of human D-542MG cell growth in a cell viability assay.

DMS-79 = assay type: functional, cell-based; details: Homo sapiens;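 also: growth inhibition measured with a cell viability assay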
Description: SANGER: Inhibition of human DMS-79 cell growth in a cell viability assay.

DU-4475 = assay type: functional, cell-based; details: Homo sapiens
Description: SANGER: Inhibition of human DU-4475 cell growth in a cell viability assay.

EW-16 = assay type: functional, cell-based, Homo sapiens; details: Homo sapiens, EW-16;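 also: growth inhibition of human EW-16 cells, read out as cell viability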
Description: SANGER: Inhibition of human EW-16 cell growth in a cell viability assay.

GI-ME-N = assay type: functional, cell-based, Homo sapiens; details: Homo sapiens, GI-ME-N;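 also: growth inhibition of human GI-ME-N cells, read out with a cell viability assay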
Description: SANGER: Inhibition of human GI-ME-N cell growth in a cell viability assay.

GOTO = assay type: functional, cell-based, Homo sapiens; details: Homo sapiens, GOTO;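 also: growth inhibition of GOTO cells, read out by a cell viability assay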
Description: SANGER: Inhibition of human GOTO cell growth in a cell viability assay.

HCC1395 = assay type: functional, cell-based, Homo sapiens; details: Homo sapiens, HCC1395;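 also: growth inhibition of HCC1395 cells, read out by a cell viability assay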
Description: SANGER: Inhibition of human HCC1395 cell growth in a cell viability assay.

HLE = assay type: functional, cell-based, Homo sapiens; details: Homo sapiens, HLE;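 also: growth inhibition of human HLE cells, read out by a cell viability assay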
Description: SANGER: Inhibition of human HLE cell growth in a cell viability assay.

HOP-92 = assay type: functional, cell-based, Homo sapiens; details: Homo sapiens, HOP-92;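 also: cell viability readout, with IC50 reflecting inhibition of HOP-92 cell growth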
Description: SANGER: Inhibition of human HOP-92 cell growth in a cell viability assay.

HSC-3 = assay type: functional, cell-based, Homo sapiens; details: Homo sapiens, HSC-3
Description: SANGER: Inhibition of human HSC-3 cell growth in a cell viability assay.

HT-1376 = assay type: functional, cell-based, Homo sapiens; details: Homo sapiens, HT-1376
Description: SANGER: Inhibition of human HT-1376 cell growth in a cell viability assay.

HTC-C3 = assay type: functional, cell-based, Homo sapiens; details: Homo sapiens, HTC-C3;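 also: inhibition of cell growth, read out with a cell viability assay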
Description: SANGER: Inhibition of human HTC-C3 cell growth in a cell viability assay.

JVM-2 = assay type: functional, cell-based; details: Homo sapiens;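 also: growth inhibition of JVM-2 cells determined by a cell viability assay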
Description: SANGER: Inhibition of human JVM-2 cell growth in a cell viability assay.

K562 = assay type: functional, cell-based; details: Homo sapiens
Description: SANGER: Inhibition of human K-562 cell growth in a cell viability assay.

KNS-81-FD = assay type: functional, cell-based, Homo sapiens; details: Homo sapiens, KNS-81-FD;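 also: growth inhibition of KNS-81-FD cells, read out with a cell viability assay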
Description: SANGER: Inhibition of human KNS-81-FD cell growth in a cell viability assay.

KYSE-140 = assay type: functional, cell-based, Homo sapiens; details: Homo sapiens, KYSE-140;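 also: cell viability assay measuring growth inhibition in human KYSE-140 cells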
Description: SANGER: Inhibition of human KYSE-140 cell growth in a cell viability assay.

KYSE-270 = assay type: functional, cell-based, Homo sapiens; details: Homo sapiens, KYSE-270;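 also: cell growth inhibition measured with a viability assay in the human KYSE-270 line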
Description: SANGER: Inhibition of human KYSE-270 cell growth in a cell viability assay.

LB1047-RCC = assay type: functional, cell-based, Homo sapiens; details: Homo sapiens, LB1047-RCC;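 also: inhibition of cell growth, determined with a cell viability assay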
Description: SANGER: Inhibition of human LB1047-RCC cell growth in a cell viability assay.

MDA-MB-175-VII = assay type: functional, cell-based, Homo sapiens; details: Homo sapiens, MDA-MB-175-VII
ME-180 = assay type: functional, cell-based; details: Homo sapiens;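 also: cell viability assay measuring growth inhibition of ME-180 cells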
Description: SANGER: Inhibition of human ME-180 cell growth in a cell viability assay.

MHH-NB-11 = assay type: functional, cell-based, Homo sapiens; details: Homo sapiens, MHH-NB-11;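 also: growth inhibition of human MHH-NB-11 cells, read out by a cell viability assay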
Description: SANGER: Inhibition of human MHH-NB-11 cell growth in a cell viability assay.

MIA PaCa-2 = assay type: functional, cell-based, Homo sapiens; details: Homo sapiens, MIA PaCa-2;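 also: growth inhibition of MIA PaCa-2 cells, read out with a cell viability assay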
Description: SANGER: Inhibition of human MIA-PaCa-2 cell growth in a cell viability assay.

MKN-45 = assay type: functional, cell-based, Homo sapiens; details: Homo sapiens, MKN-45;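 also: growth inhibition of human MKN-45 cells, measured with a cell viability assay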
Description: SANGER: Inhibition of human MKN45 cell growth in a cell viability assay.

NB13 = assay type: functional, cell-based, Homo sapiens; details: Homo sapiens, NB13;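 also: cell viability readout measuring growth inhibition of human NB13 cells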
Description: SANGER: Inhibition of human NB13 cell growth in a cell viability assay.

NCI-H1563 = assay type: functional, cell-based, Homo sapiens; details: Homo sapiens, NCI-H1563;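 also: growth inhibition of human NCI-H1563 cells, read out with a cell viability assay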
Description: SANGER: Inhibition of human NCI-H1563 cell growth in a cell viability assay.

NCI-H1792 = assay type: functional, cell-based, Homo sapiens; details: Homo sapiens, NCI-H1792;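 also: growth inhibition of human NCI-H1792 cells, read out as cell viability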
Description: SANGER: Inhibition of human NCI-H1792 cell growth in a cell viability assay.

SNU-5 = assay type: functional, cell-based; details: Homo sapiens;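 also: cell viability readout used to measure growth inhibition in human NCI-SNU-5 cells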
Description: SANGER: Inhibition of human NCI-SNU-5 cell growth in a cell viability assay.

NMC-G1 = assay type: functional, cell-based, Homo sapiens; details: Homo sapiens, NMC-G1;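 also: growth inhibition of the NMC-G1 cell line, measured with a cell viability read-out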
Description: SANGER: Inhibition of human NMC-G1 cell growth in a cell viability assay.

OE33 = assay type: functional, cell-based, Homo sapiens; details: Homo sapiens, OE33;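 also: growth inhibition of human OE33 cells, measured by a cell viability assay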
Description: SANGER: Inhibition of human OE33 cell growth in a cell viability assay.

PANC-03-27 = assay type: functional, cell-based, Homo sapiens; details: Homo sapiens, PANC-03-27
Description: SANGER: Inhibition of human PANC-03-27 cell growth in a cell viability assay.

PANC-08-13 = assay type: functional, cell-based, Homo sapiens; details: Homo sapiens, PANC-08-13;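 also: cell growth inhibition, measured with a cell viability assay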
Description: SANGER: Inhibition of human PANC-08-13 cell growth in a cell viability assay.

RH-1 = assay type: functional, cell-based, Homo sapiens; details: Homo sapiens, RH-1;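 also: growth inhibition of human RH-1 cells, read out with a cell viability assay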
Description: SANGER: Inhibition of human RH-1 cell growth in a cell viability assay.

RXF 393 = assay type: functional, cell-based; details: Homo sapiens;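 also: growth inhibition of human RXF 393 cells, read out with a cell viability assay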
Description: SANGER: Inhibition of human RXF393 cell growth in a cell viability assay.

S-117 = assay type: functional, cell-based, Homo sapiens; details: Homo sapiens, S-117
Description: SANGER: Inhibition of human S-117 cell growth in a cell viability assay.

SK-MEL-28 = assay type: functional, cell-based; details: Homo sapiens;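 also: growth inhibition of human SK-MEL-28 cells, read out with a cell viability assay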
Description: SANGER: Inhibition of human SK-MEL-28 cell growth in a cell viability assay.

SNU-C2B = assay type: functional, cell-based, Homo sapiens; details: Homo sapiens, SNU-C2B;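 also: cell viability readout used to measure compound-driven suppression of SNU-C2B cell proliferation, IC50 marking half-maximal growth inhibition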
Description: SANGER: Inhibition of human SNU-C2B cell growth in a cell viability assay.

SW626 = assay type: functional, cell-based, Homo sapiens; details: Homo sapiens, SW626;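 also: growth inhibition of SW626 cells, measured with a cell viability assay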
Description: SANGER: Inhibition of human SW626 cell growth in a cell viability assay.

786-0 = assay type: functional, cell-based, Homo sapiens; details: Homo sapiens
Description: SANGER: Inhibition of human 786-0 cell growth in a cell viability assay.

Becker = assay type: functional, cell-based, Homo sapiens; details: Homo sapiens, Becker;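 also: growth inhibition of Becker cells, read out with a cell viability assay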
Description: SANGER: Inhibition of human Becker cell growth in a cell viability assay.

C2BBe1 = assay type: functional, cell-based, Homo sapiens; details: Homo sapiens, C2BBe1;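 also: growth inhibition of C2BBe1 cells, read out through a viability assay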
Description: SANGER: Inhibition of human C2BBe1 cell growth in a cell viability assay.

CAL-72 = assay type: functional, cell-based, Homo sapiens; details: Homo sapiens, CAL-72;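 also: cell viability assay measuring inhibition of proliferation in the CAL-72 cell line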
Description: SANGER: Inhibition of human CAL-72 cell growth in a cell viability assay.

TE-11 = assay type: functional, cell-based, Homo sapiens; details: Homo sapiens, TE-11;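 also: growth inhibition of human TE-11 cells, read out by a cell viability assay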
Description: SANGER: Inhibition of human TE-11 cell growth in a cell viability assay.

TGBC1TKB = assay type: functional, cell-based, Homo sapiens; details: Homo sapiens, TGBC1TKB;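 also: growth inhibition of TGBC1TKB cells, read out by a cell viability assay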
Description: SANGER: Inhibition of human TGBC1TKB cell growth in a cell viability assay.

TYK-nu = assay type: functional, cell-based, Homo sapiens; details: Homo sapiens, TYK-nu;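 also: growth inhibition of human TYK-nu cells, read out by a cell viability assay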
Description: SANGER: Inhibition of human TYK-nu cell growth in a cell viability assay.

UACC-62 = assay type: functional, cell-based, Homo sapiens; details: Homo sapiens, UACC-62;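 also: growth inhibition of human UACC-62 cells, read out by a cell viability assay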
Description: SANGER: Inhibition of human UACC-62 cell growth in a cell viability assay.

CN(c1ncccc1CNc1nc(Nc2ccc3c(c2)CC(=O)N3)ncc1C(F)(F)F)S(C)(=O)=O [PF-00562271]
IC50 (COLO-829): 752 nM | IC50 (CP50-MEL-B): > 2560 nM | IC50 (CTV-1): > 2560 nM | IC50 (D-336MG): 1860 nM | IC50 (D-502MG): > 2560 nM | IC50 (D-542MG): > 2560 nM | IC50 (DMS-79): > 2560 nM | IC50 (DU-4475): 2150 nM | IC50 (EW-16): 2040 nM | IC50 (GI-ME-N): > 2560 nM | IC50 (GOTO): > 2560 nM | IC50 (HCC1395): > 2560 nM | IC50 (HLE): > 2560 nM | IC50 (HOP-92): 2310 nM | IC50 (HSC-3): > 2560 nM | IC50 (HT-1376): > 2560 nM | IC50 (HTC-C3): > 2560 nM | IC50 (JVM-2): > 2560 nM | IC50 (K562): > 2560 nM | IC50 (KNS-81-FD): > 2560 nM | IC50 (KYSE-140): > 2560 nM | IC50 (KYSE-270): 1050 nM | IC50 (LB1047-RCC): > 2560 nM | IC50 (MDA-MB-175-VII): > 2560 nM | IC50 (ME-180): > 2560 nM | IC50 (MHH-NB-11): 2130 nM | IC50 (MIA PaCa-2): > 2560 nM | IC50 (MKN-45): > 2560 nM | IC50 (NB13): > 2560 nM | IC50 (NCI-H1563): > 2560 nM | IC50 (NCI-H1792): > 2560 nM | IC50 (SNU-5): > 2560 nM | IC50 (NMC-G1): > 2560 nM | IC50 (OE33): > 2560 nM | IC50 (PANC-03-27): > 2560 nM | IC50 (PANC-08-13): > 2560 nM | IC50 (RH-1): > 2560 nM | IC50 (RXF 393): > 2560 nM | IC50 (S-117): > 2560 nM | IC50 (SK-MEL-28): > 2560 nM | IC50 (SNU-C2B): > 2560 nM | IC50 (SW626): > 2560 nM | IC50 (786-0): > 2560 nM | IC50 (Becker): > 2560 nM | IC50 (C2BBe1): > 2560 nM | IC50 (CAL-72): > 2560 nM | IC50 (TE-11): 1640 nM | IC50 (TGBC1TKB): > 2560 nM | IC50 (TYK-nu): > 2560 nM | IC50 (UACC-62): > 2560 nM

CCC1=C[C@@H]2CN(C1)Cc1c([nH]c3ccccc13)[C@@](C(=O)OC)(c1cc3c(cc1OC)N(C)[C@H]1[C@@](O)(C(=O)OC)[C@H](OC(C)=O)[C@]4(CC)C=CCN5CC[C@]31[C@@H]54)C2 [VINORELBINE]
IC50 (COLO-829): 0.105 nM | IC50 (CP50-MEL-B): 43.4 nM | IC50 (CTV-1): 5.01 nM | IC50 (D-336MG): 63.9 nM | IC50 (D-502MG): > 64 nM | IC50 (D-542MG): > 64 nM | IC50 (DMS-79): > 64 nM | IC50 (DU-4475): 48.1 nM | IC50 (EW-16): 4.35 nM | IC50 (GI-ME-N): 5.76 nM | IC50 (GOTO): > 64 nM | IC50 (HCC1395): 15.9 nM | IC50 (HLE): 10.2 nM | IC50 (HOP-92): 51.3 nM | IC50 (HSC-3): 5.62 nM | IC50 (HT-1376): 31.5 nM | IC50 (HTC-C3): 26.5 nM | IC50 (JVM-2): > 64 nM | IC50 (K562): > 64 nM | IC50 (KNS-81-FD): > 64 nM | IC50 (KYSE-140): 23.8 nM | IC50 (KYSE-270): 3.16 nM | IC50 (LB1047-RCC): > 64 nM | IC50 (MDA-MB-175-VII): > 64 nM | IC50 (ME-180): 21 nM | IC50 (MHH-NB-11): 17.7 nM | IC50 (MIA PaCa-2): 5.83 nM | IC50 (MKN-45): 2.29 nM | IC50 (NB13): 5.01 nM | IC50 (NCI-H1563): 12.8 nM | IC50 (NCI-H1792): > 64 nM | IC50 (SNU-5): 45.8 nM | IC50 (NMC-G1): 14.9 nM | IC50 (OE33): 20.4 nM | IC50 (PANC-03-27): 5.95 nM | IC50 (PANC-08-13): 46.9 nM | IC50 (RH-1): 11 nM | IC50 (RXF 393): 5.06 nM | IC50 (S-117): > 64 nM | IC50 (SK-MEL-28): > 64 nM | IC50 (SNU-C2B): 7.75 nM | IC50 (SW626): 37.7 nM | IC50 (786-0): 2.99 nM | IC50 (Becker): 5.39 nM | IC50 (C2BBe1): > 64 nM | IC50 (CAL-72): > 64 nM | IC50 (TE-11): 9.16 nM | IC50 (TGBC1TKB): > 64 nM | IC50 (TYK-nu): > 64 nM | IC50 (UACC-62): 33.4 nM
